According to US20050070558A1, “6-Phenyldihydropyrrolopyrimidinedione derivatives” (priority 2001, published 2005):

Biological target: T1, hA2b receptors (Homo sapiens, UniProt P29275)
T1 construct: purchased Receptor Biology, Inc. (USA); host or cells: HEK293
T1 sequence (P29275 1-332): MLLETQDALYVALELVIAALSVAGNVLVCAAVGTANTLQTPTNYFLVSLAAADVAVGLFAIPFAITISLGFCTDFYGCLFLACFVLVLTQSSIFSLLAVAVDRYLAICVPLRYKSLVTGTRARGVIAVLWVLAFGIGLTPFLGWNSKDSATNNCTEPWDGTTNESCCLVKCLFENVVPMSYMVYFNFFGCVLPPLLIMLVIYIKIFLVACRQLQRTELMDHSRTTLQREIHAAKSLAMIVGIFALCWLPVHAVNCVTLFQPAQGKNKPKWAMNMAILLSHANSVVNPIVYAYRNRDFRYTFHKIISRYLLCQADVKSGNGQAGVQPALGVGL
Test: Adenosine 2b receptor subtype competition radioligand binding ([3H]DPCPX)
Details: membranes from hA2b receptors transfected to HEK293 cells, 30 min at 25° C., read-out: IC50 A2b
Method: Adenosine 2b Receptor Subtype Competition Radioligand Binding
Human membranes from recombinant A2b receptors were purchased from Receptor Biology, Inc. (USA).
Competition assays were carried out by incubation of membranes from hA2b receptors transfected to HEK293 cells, [^3H]DPCPX as radioligand, buffer (50 mM Tris-HCl (pH 6.5), 10 mM MgCl2, 1 mM EDTA, 0.1 mM benzamidine, 2 units/ml adenosine deaminase), and unlabelled ligand in a total volume of 0.1 ml for 30 min at 25° C. NECA was used to determinate non-specific binding. Filter over Schleicher&Schuell GF/52 filters (pre-soaked 0.5% polyethylenyimine) in a Brandel cell harvester. Unbound radioligand was removed with 4×2 ml ice-cold 50 mM Tris-Hcl 50 mM (pH 6.5).

SMILES | IC50 [µM]
CCCn1c(=O)c2[nH]c(-c3ccc(OCC(=O)N4CCN(c5ccccc5)CC4)cc3)cc2n(CCC)c1=O [Example 2, 6-{4-[2-Oxo-2-(4-phenylpiperazin-1-yl)ethoxy]phenyl}-1,3-dipropyl-1,5-dihydropyrrolo[3,2-d]pyrimidine-2,4-dione] | 0.007
CCCn1c(=O)c2[nH]c(-c3ccc(OCC(=O)Nc4ccc(F)cc4)cc3)cc2n(CCC)c1=O [Example 3, 2-[4-(2,4-Dioxo-1,3-dipropyl-2,3,4,5-tetrahydro-1H-pyrrolo[3,2-d]pyrimidin-6-yl)phenoxy]-N-(4-fluorophenyl)acetamide] | 0.005
CCCn1c(=O)c2[nH]c(-c3ccc(OCc4nc(-c5ccccc5)no4)cc3)cc2n(CCC)c1=O [Example 210, 6-[4-(3-Phenyl[1,2,4]oxadiazol-5-ylmethoxy)phenyl]-1,3-dipropyl-1,5-dihydropyrrolo[3,2-d]pyrimidine-2,4-dione] | 0.017
CCCn1c(=O)c2[nH]c(-c3ccc(OCC(=O)N4CCC(c5ccccc5)(c5ccccc5)CC4)cc3)cc2n(C)c1=O [Example 100, 6-{4-[2-(4,4-Diphenylpiperidin-1-yl)-2-oxo-ethoxy]phenyl}-1-methyl-3-propyl-1,5-dihydropyrrolo[3,2-d]pyrimidine-2,4 dione] | 0.01
CCCn1c(=O)c2[nH]c(-c3ccc(OCC(=O)N4CCc5ccccc5C4)cc3)cc2n(CCC)c1=O [Example 4] | 0.003
Cn1c(=O)c2[nH]c(-c3ccc(OCC(=O)N4CCN(c5ccccc5)CC4)cc3)cc2n(C)c1=O [Example 68, 1,3-Dimethyl-6-{4-[2-oxo-2-(4-phenylpiperazin-1-yl)ethoxy]phenyl}-1,5-dihydropyrrolo[3,2-d]pyrimidine-2,4-dione] | 0.008
Cn1c(=O)c2[nH]c(-c3ccc(OCC(=O)Nc4nncs4)cc3)cc2n(C)c1=O [Example 67, 2-[4-(1,3-Dimethyl-2,4-dioxo-2,3,4,5-tetrahydro-1H-pyrrolo[3,2-d]pyrimidin-6-yl)phenoxy]-N-[1,3,4]thiadiazol-2-ylacetamide] | 0.024

Biological target: T2, hA2a receptors (Homo sapiens, UniProt P29274)
T2 construct: purchased Receptor Biology, Inc. (USA); host or cells: HEK293
T2 sequence (P29274 whole entry): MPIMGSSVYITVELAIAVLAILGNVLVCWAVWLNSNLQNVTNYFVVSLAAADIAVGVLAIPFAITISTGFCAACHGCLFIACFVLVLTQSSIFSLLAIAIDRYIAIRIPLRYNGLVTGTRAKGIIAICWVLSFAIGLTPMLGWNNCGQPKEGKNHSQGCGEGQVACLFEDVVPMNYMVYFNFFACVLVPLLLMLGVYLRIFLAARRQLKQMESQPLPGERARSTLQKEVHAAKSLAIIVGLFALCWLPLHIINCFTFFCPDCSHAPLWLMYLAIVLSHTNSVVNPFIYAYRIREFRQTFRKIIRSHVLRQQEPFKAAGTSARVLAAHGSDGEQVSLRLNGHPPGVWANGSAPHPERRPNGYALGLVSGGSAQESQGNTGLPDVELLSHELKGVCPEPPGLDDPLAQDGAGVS
Test: Adenosine 2a receptor subtype competition radioligand binding ([3H]ZM241385)
Details: membranes from hA2a receptors transfected to HEK293 cells, [3H]ZM241385, 90 min at 25° C.; read-out: IC50 A2a
Method: Adenosine 2a Receptor Subtype Competition Radioligand Binding
Human membranes from recombinant A2a receptors were purchased from Receptor Biology, Inc. (USA).
Competition assays were carried out by incubation of membranes from hA2a receptors transfected to HEK293 cells, [^3H]ZM241385 as radioligand, buffer (50 mM Tris-HCl (pH 7.4), 10 mM MgCl2, 1 mM EDTA, 2 units/ml adenosine deaminase), and unlabelled ligand in a total volume of 0.2 ml for 90 min at 25° C. NECA was used to determinate non-specific binding. Filter over Schleicher&Schuell GF/52 filters (pre-soaked 0.5% polyethylenyimine) in a Brandel cell harvester. Unbound radioligand was removed with 3×3 ml ice-cold 50 mM Tris-Hcl 50 mM (pH 7.4), 0.9% NaCl.

SMILES | IC50 [µM]
CCCn1c(=O)c2[nH]c(-c3ccc(OCC(=O)Nc4ccc(F)cc4)cc3)c(Br)c2n(CCC)c1=O [Example 138, 2-[4-(7-Bromo-2,4-dioxo-1,3-dipropyl-2,3,4,5-tetrahydro-1H-pyrrolo[3,2-d]pyrimidin-6-yl)phenoxy]-N-(4-fluorophenyl)acetamide] | 0.038
CCCn1c(=O)c2[nH]c(-c3ccc(OCC(=O)Nc4ccc(F)cc4)cc3)cc2n(CCC)c1=O [Example 3, 2-[4-(2,4-Dioxo-1,3-dipropyl-2,3,4,5-tetrahydro-1H-pyrrolo[3,2-d]pyrimidin-6-yl)phenoxy]-N-(4-fluorophenyl)acetamide] | 0.022
COc1cc(-c2cc3c([nH]2)c(=O)n(C)c(=O)n3C)ccc1OCC(=O)Nc1ccc(F)cc1 [Example 160, 2-[4-(1,3-Dimethyl-2,4-dioxo-2,3,4,5-tetrahydro-1H-pyrrolo[3,2-d]pyrimidin-6-yl)-2-methoxyphenoxy]-N-(4-fluorophenyl)acetamide] | 0.084
Cn1c(=O)c2[nH]c(-c3ccc(OCC(=O)Nc4nncs4)cc3)cc2n(C)c1=O [Example 67, 2-[4-(1,3-Dimethyl-2,4-dioxo-2,3,4,5-tetrahydro-1H-pyrrolo[3,2-d]pyrimidin-6-yl)phenoxy]-N-[1,3,4]thiadiazol-2-ylacetamide] | 0.026

Tested on: not given
Test: not given
Details: not given

SMILES | melting point
Cc1ccc(NC(=O)OCc2ccc(-c3cc4c([nH]3)c(=O)n(C)c(=O)n4C)cc2)nc1 [Example 269, (5-Methylpyridin-2-yl)-carbamic acid 4-(1,3-dimethyl-2,4-dioxo-2,3,4,5-tetrahydro-1H-pyrrolo[3,2-d]pyrimidin-6-yl)benzyl ester] | 293 °C
Cn1c(=O)c2[nH]c(-c3ccc(OCC(=O)N4CCN(c5cccc(C(F)(F)F)c5)CC4)cc3)cc2n(C)c1=O [Example 74, 1,3-Dimethyl-6-(4-{2-oxo-2-[4-(3-trifluoromethylphenyl)piperazin-1-yl]ethoxy}phenyl)-1,5-dihydropyrrolo[3,2-d]pyrimidine-2,4-dione] | > 275 °C (dec.)
CCCn1c(=O)c2[nH]c(-c3ccc(COC(=O)Nc4cc(OC)nc(OC)n4)cc3)cc2n(CCC)c1=O [Example 259, (2,6-Dimethoxy-pyrimidin-4-yl)-carbamic Acid 4-(2,4-dioxo-1,3-dipropyl-2,3,4,5-tetrahydro-1H-pyrrolo[3,2-d]pyrimidin-6-yl)benzyl Ester] | 182 to 185 °C
Cn1c(=O)c2[nH]c(-c3ccc(COC(=O)Nc4ccsc4)cc3)cc2n(C)c1=O [Example 271, Thiophen-3-yl-carbamic acid 4-(1,3-dimethyl-2,4-dioxo-2,3,4,5-tetrahydro-1H-pyrrolo[3,2-d]pyrimidin-6-yl)-benzyl ester] | 280 °C
Cn1c(=O)c2[nH]c(-c3ccc(COC(=O)Nc4ccco4)cc3)cc2n(C)c1=O [Example 272, Furan-2-yl-carbamic acid 4-(1,3-dimethyl-2,4-dioxo-2,3,4,5-tetrahydro 1H-pyrrolo[3,2-d]pyrimidin-6-yl)-benzyl ester] | 278 °C
Cn1c(=O)c2[nH]c(-c3ccc(COC(=O)Nc4cccs4)cc3)cc2n(C)c1=O [Example 270, Thiophen-2-yl-carbamic acid 4-(1,3-dimethyl-2,4-dioxo-2,3,4,5-tetrahydro-1H-pyrrolo[3,2-d]pyrimidin-6-yl)-benzyl ester] | 287 °C
Cn1c(=O)c2[nH]c(-c3ccc(COC(=O)Nc4ccccn4)cc3)cc2n(C)c1=O [Example 268, Pyridin-2-yl-carbamic acid 4-(1,3-dimethyl-2,4-dioxo-2,3,4,5-tetrahydro-1H-pyrrolo[3,2-d]pyrimidin-6-yl)benzyl ester] | 301 °C
